The values below are quoted from earlier work in patent US20160287529A1, “METHOD FOR TREATING AND PREVENTING RECURRENT INTERDIGITAL TINEA PEDIS (ATHLETE'S FOOT) DISEASE” (priority 2015, published 2016).

The subject of this series is fungal infections of the skin and nails of the human foot. To be noted: topical treatment.

For the molecule `C=CCCCCCCCCC(=O)O` [undecenoic acid], the “effectiveness compared with the allylamines” value is given as “less effective”. In the case of `Cc1cccc(N(C)C(=S)Oc2ccc3ccccc3c2)c1` [tolnaftate], the “effectiveness compared with the allylamines” value is listed as “less effective”.
